The values below come from publication PMC2593629 (Bioorganic & medicinal chemistry letters, 2008).

Where two headings read alike, the source gives them in different places.

The test system of test [1] is CB1 -/- mouse brain membranes. In kind it is biochemical.
Test [2] deals with T1, CB1 (Mus musculus, UniProt P47746). The experiment in a line: biochemical.
A further test deals with mice. The settings on record: mouse.
The next test has as its target T2, mouse brain MAGL (Mus musculus, UniProt O35678).
T2 sequence (O35678 1-303): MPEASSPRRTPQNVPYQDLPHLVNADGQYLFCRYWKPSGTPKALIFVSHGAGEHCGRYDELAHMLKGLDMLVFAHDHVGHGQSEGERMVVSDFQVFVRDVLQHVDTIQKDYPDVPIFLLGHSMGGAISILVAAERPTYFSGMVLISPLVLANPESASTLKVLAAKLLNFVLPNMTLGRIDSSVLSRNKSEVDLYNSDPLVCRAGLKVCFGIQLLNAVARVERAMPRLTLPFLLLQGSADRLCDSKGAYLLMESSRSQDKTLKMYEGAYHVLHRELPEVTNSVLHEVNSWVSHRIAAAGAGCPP
As to the kind of experiment: MAGL activity in mouse brain membranes. It counts as biochemical. Conditions: read-out: MAGL IC50.

Test [3] has as its target eCB1 (CB1 overexpressed in HEK293 cells) (Mus musculus, UniProt P47746). In kind it is binding.
The target of test [4] is T1, CB1. The experiment in a line: biochemical. It counts as binding.

T1 sequence (P47746 whole entry): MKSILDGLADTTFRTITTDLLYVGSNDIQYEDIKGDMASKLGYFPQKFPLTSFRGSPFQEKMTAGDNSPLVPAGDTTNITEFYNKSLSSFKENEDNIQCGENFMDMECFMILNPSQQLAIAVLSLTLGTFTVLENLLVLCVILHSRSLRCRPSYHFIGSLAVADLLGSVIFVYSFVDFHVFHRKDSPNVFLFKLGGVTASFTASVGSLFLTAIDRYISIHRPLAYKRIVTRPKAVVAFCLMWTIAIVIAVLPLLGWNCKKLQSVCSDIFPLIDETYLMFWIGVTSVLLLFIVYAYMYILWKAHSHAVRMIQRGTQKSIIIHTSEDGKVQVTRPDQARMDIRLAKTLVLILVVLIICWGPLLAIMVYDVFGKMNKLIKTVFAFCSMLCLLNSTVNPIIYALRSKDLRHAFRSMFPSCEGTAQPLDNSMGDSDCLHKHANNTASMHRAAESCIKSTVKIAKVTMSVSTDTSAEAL
Sequence of eCB1 (CB1 overexpressed in HEK293 cells) (P47746 whole entry): as above

Regarding `CCCCC/C=C\C/C=C\C/C=C\C/C=C\CCCC(=O)OC(CO)CO` [2-AG, 2-arachidonoylglycerol], the “Stimulation of GTPγS binding in CB1 -/- membranes” value in test [1] was “significant”. Also, the EC50 on CB1 [2] (EC50 for stimulation of GTPγS binding) amounted to 1000 nM; on CB1 [2] (EC50 of 2-AG for stimulation of GTPγS binding after preincubation with OP 1) it was 300 nM.
For the compound `CCCCCCCCCCCCP(=O)(OCC)Oc1nc(Cl)c(Cl)cc1Cl` (centres unmarked) [OP 3], in the test with mice, the “In vivo effectiveness in modulating behavior and brain 2-AG and AA levels” value (from here on “In vivo effectiveness”) is on record as “not effective in vivo”.
In the case of `CCCCCCCCCCCCP(=O)(OCC)Oc1ccc(C#N)cc1` (centres unmarked) [OP 4], the “In vivo effectiveness” value in the test with mice is “very effective in vivo in all respects”. The IC50 on mouse brain MAGL (substrate 2-AG) and at mouse brain MAGL (substrate [14C]1-oleoylglycerol) was 70 nM throughout.
For the compound `CCOP(=O)(OCC)Oc1nc(Cl)c(Cl)cc1Cl` [OP 7, chlorpyrifos oxon], in test [3], the “Sensitivity of eCB1 [3H]CP55940 binding” value is given as “not sensitive”.
With `CCCCCCCCCCCCS(=O)(=O)F` [OS 9], the “In vivo effectiveness” value with mice was “same in vivo effects as OP 1 and OP 4”.
For the compound `CCCCCCCCS(=O)(=O)F` [OS 10], the “In vivo effectiveness” value in the test on mice is “same in vivo effects as OP 1 and OP 4”.
On CB1 [4], `CCCCCCC(C)(C)c1ccc([C@@H]2C[C@H](O)CC[C@H]2CCCO)c(O)c1` [[^3H]CP55940] returned a Kd of 0.86 nM. In other words, the sub-nanomolar range.
